This note sets out measurements from ChEMBL document CHEMBL5226386, “Discovery and Biosynthesis of Glycosylated Cycloheximide from a Millipede-Associated Actinomycete” (J Nat Prod, 2023).

The structures appear in SMILES notation. In brackets after ≈: the same amount, converted by molar mass.

One assay has as its system Cryptococcus neoformans. Nature of the assay: Antifungal activity against Cryptococcus neoformans H99 assessed as inhibition of fungal growth incubated for 24 hrs by agar diffusion method. Format: functional.
A further assay has as its system Saccharomyces cerevisiae. Nature of the assay: Antifungal activity against Saccharomyces cerevisiae BY4741 assessed as inhibition of fungal growth incubated for 24 hrs by agar diffusion method. In kind it is functional.
Another assay concerns A549. Nature of the assay: Cytotoxicity against human A549 cells assessed as reduction in cell viability incubated for 48 hrs by CCK-8 assay. The settings on record: A549, 48 h. Format: functional, cell-based. For orientation: Tetrazolium assays rely on reduction of a dye to a coloured formazan, in cell work by metabolically active cells.
The next assay has as its system HeLa. Description: Cytotoxicity against human HeLa cells assessed as reduction in cell viability incubated for 48 hrs by CCK-8 assay. Format: functional, cell-based.
The test system of another assay is MCF7. Nature of the assay: Cytotoxicity against human MCF7 cells assessed as reduction in cell viability incubated for 48 hrs by CCK-8 assay. To be noted: MCF7, 48 h. In kind it is functional, cell-based.

As usually defined, the MIC is the smallest concentration in the dilution series that meets the test's criterion for growth inhibition. In general, IC50 refers to the concentration that inhibits the measured activity by half. Turning to `Cc1cc(C)c(O[C@@H]2O[C@@H](C)[C@H](O)[C@@H](O)[C@H]2O)c(C(=O)CC2CC(=O)NC(=O)C2)c1`, the MIC with Cryptococcus neoformans and with Saccharomyces cerevisiae was over 32 µg/mL in each case. Moreover, the IC50 in the assay on A549, in the assay with HeLa and in the assay with MCF7 was over 20 µM each time.
`C[C@@H]1C[C@@H]([C@H](O)CC2CC(=O)NC(=O)C2)C(=O)[C@@H](C)C1` [CYCLOHEXIMIDE]: the MIC in the assay with Cryptococcus neoformans and in the assay with Saccharomyces cerevisiae was 2 µg/mL (≈ 7.11 µM) each time. Also, the half-inhibitory concentration (IC50) in the assay on A549 worked out at 0.67 µM; with HeLa, 1 µM; with MCF7 it was 0.53 µM.
With `C[C@@H]1C[C@@H]([C@@H](CC2CC(=O)NC(=O)C2)O[C@H]2O[C@H](CO)[C@@H](O)[C@H](O)[C@H]2O)C(=O)[C@@H](C)C1`, the minimal inhibitory concentration (MIC) in the assay with Cryptococcus neoformans and in the assay on Saccharomyces cerevisiae was over 32 µg/mL each time. The concentration for half-maximal inhibition (IC50) in the assay on A549, in the assay on HeLa and in the assay with MCF7 was over 20 µM each time.
As to `COc1cccc2c1C(=O)c1c(O)c3c(c(O)c1C2=O)C[C@@](O)(C(=O)CO)C[C@@H]3O[C@H]1C[C@H](N)[C@H](O)[C@H](C)O1` [DOXORUBICIN], the IC50 came out at 0.6 µM in the assay with A549, 0.09 µM in the assay with HeLa and 0.97 µM in the assay with MCF7.
Consider `C[C@@H]1C/C(=C\CC2CC(=O)NC(=O)C2)C(=O)[C@@H](C)C1`, for which the MIC in the assay with Cryptococcus neoformans and in the assay on Saccharomyces cerevisiae was over 32 µg/mL in each case. In addition, the 50% inhibitory concentration (IC50) in the assay on A549, with HeLa and in the assay on MCF7 was over 20 µM each time.
